Measured values: patent US20260097017A1, “TASIPIMIDINE AND CYP2D6 INHIBITOR COMBINATION TREATMENT” (ORION CORPORATION, priority 2022, published 2026)
Read-outs that look alike come from different tables or passages of the source.

What was measured:
[1] = background statement; cited from earlier work
CYP1A2 = biological target: T1, CYP1A2 (Homo sapiens, UniProt P05177); experiment: Recombinant human CYP incubations (enzyme identification); assay type: in vitro ADME
T1 construct: purchased; host or cells: baculovirus-transfected insect cells
T1 sequence (P05177 1-516): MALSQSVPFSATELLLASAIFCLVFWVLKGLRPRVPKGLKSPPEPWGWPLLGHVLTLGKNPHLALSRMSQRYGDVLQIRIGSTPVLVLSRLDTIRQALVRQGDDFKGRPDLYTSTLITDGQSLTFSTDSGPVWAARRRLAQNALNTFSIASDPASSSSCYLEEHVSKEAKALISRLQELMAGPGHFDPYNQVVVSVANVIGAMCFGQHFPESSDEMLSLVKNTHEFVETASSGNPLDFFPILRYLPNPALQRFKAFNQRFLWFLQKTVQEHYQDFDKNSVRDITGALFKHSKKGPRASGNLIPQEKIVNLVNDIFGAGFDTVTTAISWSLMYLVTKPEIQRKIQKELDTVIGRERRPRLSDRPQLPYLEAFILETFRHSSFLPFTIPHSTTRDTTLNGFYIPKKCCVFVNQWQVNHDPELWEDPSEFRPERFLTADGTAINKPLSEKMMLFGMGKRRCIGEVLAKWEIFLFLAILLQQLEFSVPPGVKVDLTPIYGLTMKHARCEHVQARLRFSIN
Description: (§1) The objective of these studies was to identify enzymes involved in the metabolism of tasipimidine in human. The test substance tasipimidine and the reference compounds for main tasipimidine metabolites 1-(4,5-dihydro-1H-imidazol-2-yl) isochroman-5-ol (metabolite 1), 2-(5-methoxyisochroman-1-yl)-1H-imidazole (metabolite 2), and 1-(1H-imidazol-2-yl) isochroman-5-ol (metabolite 3) were supplied by Orion Pharma. To further support the findings of recombinant enzyme incubations tasipimidine was incubated with human hepatocytes with two enzyme inhibitors, i.e. 1-aminobenzotriazole (ABT, non-selective CYP inhibitor), and quinidine (CYP2D6 inhibitor).
(§2) The analysis for disappearance of tasipimidine and the identification of the formed metabolites were carried out by using a high-resolution liquid chromatographic-mass spectrometer supported by accurate masses (UPLC-HRMS). Firstly, metabolic stability of tasipimidine in different in vitro matrices was determined by monitoring the disappearance of the parent compound as a function of time. Moreover, structures of the formed metabolites were characterized from their respective product ion spectra. The synthetized reference compounds of the metabolites were used to confirm the identification of those specific metabolites.

CYP1A1 = biological target: T2, CYP1A1 (Homo sapiens, UniProt P04798); experiment: as above; assay type: in vitro ADME
T2 construct: purchased; host or cells: baculovirus-transfected insect cells
T2 sequence (P04798 1-512): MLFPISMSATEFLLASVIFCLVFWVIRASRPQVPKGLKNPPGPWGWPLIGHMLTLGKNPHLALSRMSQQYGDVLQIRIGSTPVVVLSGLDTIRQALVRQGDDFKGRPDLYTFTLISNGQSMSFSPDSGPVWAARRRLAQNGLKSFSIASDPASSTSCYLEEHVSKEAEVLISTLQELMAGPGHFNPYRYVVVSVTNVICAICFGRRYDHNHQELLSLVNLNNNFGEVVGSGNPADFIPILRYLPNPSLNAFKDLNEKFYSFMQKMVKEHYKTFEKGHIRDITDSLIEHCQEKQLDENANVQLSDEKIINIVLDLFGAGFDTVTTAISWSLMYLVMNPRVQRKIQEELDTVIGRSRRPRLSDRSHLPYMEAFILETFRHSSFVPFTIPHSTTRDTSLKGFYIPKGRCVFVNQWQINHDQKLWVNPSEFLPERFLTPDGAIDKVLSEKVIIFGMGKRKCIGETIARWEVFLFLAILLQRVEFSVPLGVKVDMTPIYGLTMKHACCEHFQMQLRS
Description: as §1, §2

CYP2C19 = biological target: T3, CYP2C19 (Homo sapiens, UniProt P33261); experiment: as above; assay type: in vitro ADME
T3 construct: purchased; host or cells: baculovirus-transfected insect cells
T3 sequence (P33261 whole entry): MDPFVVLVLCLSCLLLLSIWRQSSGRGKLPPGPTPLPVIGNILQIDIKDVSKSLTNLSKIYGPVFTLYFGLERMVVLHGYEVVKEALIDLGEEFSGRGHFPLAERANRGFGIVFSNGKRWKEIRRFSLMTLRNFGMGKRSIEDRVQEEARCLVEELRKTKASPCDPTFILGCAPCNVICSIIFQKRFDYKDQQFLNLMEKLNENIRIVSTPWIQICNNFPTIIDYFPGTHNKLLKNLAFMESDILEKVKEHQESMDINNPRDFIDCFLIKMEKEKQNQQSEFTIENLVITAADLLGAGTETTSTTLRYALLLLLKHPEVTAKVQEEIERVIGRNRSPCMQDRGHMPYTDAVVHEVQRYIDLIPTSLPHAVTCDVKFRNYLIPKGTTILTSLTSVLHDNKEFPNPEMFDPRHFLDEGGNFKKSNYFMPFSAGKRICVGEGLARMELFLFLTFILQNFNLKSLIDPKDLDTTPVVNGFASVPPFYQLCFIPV
Description: as §1, §2

[2] = dogs, triggered by noise or owner departure; cited from earlier work
[3] = Caco-2 permeability (PBPK input parameter); assay type: in vitro ADME; settings: human, input parameter of the PBPK model
Text: (§3) A physiologically based pharmacokinetic (PBPK) model was used to simulate the plasma exposure of tasipimidine in fasted healthy 30 years old males of 70 kg with different CYP2D6 phenotypes. Simulations were produced with the commercial GastroPlus® 9.8.2 software.

[4] = Renal clearance (PBPK input parameter); settings: human, in vivo; input parameter of the PBPK model
Text: as §3

CYP2D6 [5] = biological target: T4, CYP2D6 (Homo sapiens, UniProt P10635); experiment: CYP2D6 kinetic parameters (PBPK input parameters); assay type: in vitro ADME; settings: input parameter of the PBPK model
Text: as §3

[6] = Blood to plasma ratio and fraction unbound in plasma (PBPK input parameters); assay type: in vitro ADME; settings: human, input parameter of the PBPK model
Text: as §3

[7] = Physicochemical input parameters of the PBPK model; settings: input parameter of the PBPK model
Text: as §3

CYP2D6 [8] = biological target: T4, CYP2D6; experiment: Incubation with rhCYP2D6 Supersomes: intrinsic clearance and enzyme kinetics; assay type: in vitro ADME; design: purchased; host or cells: baculovirus-transfected insect cells
Description: as §1
(§4) Moreover, enzyme kinetics of tasipimidine metabolism was studied in rhCYP2D6.
(§5) Enzyme kinetics of tasipidimine metabolism by rhCYP2D6 was studied by incubating the test compound at 0.16, 0.41, 1, 2.6, 6.4, 16, 40 and 100 μM concentrations containing 10 pmol/ml of the CYP enzyme for 0, 5, 10, 20, and 30 min. Enzyme kinetics was estimated from CLint values measured for the test compound at different concentrations while metabolite characterisation was not performed.
(§6) The analysis for disappearance of tasipimidine and the identification of the formed metabolites were carried out by using a high-resolution liquid chromatographic-mass spectrometer supported by accurate masses (UPLC-HRMS). […]

[9] = First-in-man single-dose escalation study, plasma PK; assay type: in vivo; settings: both sexes, human, po, mean
Description: The first-in-man study was a randomized, double-blind, placebo-controlled, single-dose escalation study with healthy female and male subjects aged 18-44 years. The subjects were allocated to cohorts of 8 subjects of which 6 received active treatment and 2 received placebo. Each subject received either 1 dose of tasipimidine oral solution or 1 dose of placebo oral solution during the study. The studied doses of tasipimidine were 10, 25, 50, 100, and 150 μg as oral solution.
(§7) The subjects were genotyped for CYP2D6 on screening. The translation of CYP2D6 genotype to CYP2D6 phenotype was done according to the national consensus published by the Dutch Pharmacogenetics Working Group from KNMP (https://www.knmp.nl/index.php/media/113). The subjects with CYP2D6 poor metabolizer genotype were excluded from the study. The translation of CYP2D6 genotype to activity score was done according to the CYP2D6 Allele Functionality Table of PharmGKB (https://www.pharmgkb.org/page/cyp2d6RefMaterials).
Frequent blood samples were taken through an intravenous cannula for the assessment of the concentration of tasipimidine and its metabolite 1 in plasma. The sampling times were before (0 h) and 15 min, 30 min, 45 min, 1, 1.5, 2, 3, 4, 5, 6, 8, 10, 12, 16, and 24 hours after the study treatment administration. The PK parameters were calculated from the plasma concentration-time data by noncompartmental method using the commercial Phoenix WinNonlin software version 8.3.

[10] = Paroxetine co-treatment crossover PK study in healthy subjects; assay type: in vivo, human; settings: 10 μg oral, mean, n = 5; for AUC(0-inf) / Cmax / half-life: human, plasma; for half-life: read-out: t½ (converted)
Description: Effect of co-treatment with a strong CYP2D6 inhibitor paroxetine on the PK of tasipimidine was studied. The study was an open label, crossover study with 5 healthy female and/or male subjects aged 26-51 years. The study started with a 8 days long once daily treatment of paroxetine 20 mg tablet. On the last day of paroxetine treatment, a single 10 μg dose of tasipimidine as oral solution was administered 1 h after the paroxetine intake after an overnight fast.
as §7
Frequent blood samples were taken through an intravenous cannula for the assessment of the concentration of tasipimidine and its metabolite 1 in plasma. The sampling times were before (0 h) and 20 min, 40 min, 1, 1.5, 2, 2.5, 3, 3.5, 4, 5, 6, 8, 12, 24, 36, and 48 hours after the study treatment administration. The PK parameters were calculated from the plasma concentration-time data by noncompartmental method using the commercial Phoenix WinNonlin software version 8.3.

[11] = substrate: COc1cccc2c1CCOC2C1=NCCN1; experiment: Incubation with rhCYP2D6 Supersomes: intrinsic clearance and enzyme kinetics; assay type: in vitro ADME, human; settings: other: rhCYP2D6, 0.16-100 μM, 10 pmol/ml CYP
Description: as §1, §4, §5, §6

[12] = substrate: COc1cccc2c1CCOC2C1=NCCN1; experiment: CYP2D6 kinetic parameters (PBPK input parameters); assay type: in vitro ADME; settings: other: input parameter of the PBPK model
Text: as §3

[13] = with paroxetine 20 mg once daily for 8 days

For `Clc1cccc(Cl)c1N=C1NCCN1` [clonidine], the “elimination half-life (t1/2)” value [1] is listed as 14 h.

For `COc1cccc2c1CCOC2C1=NCCN1` (stereo not drawn) [tasipimidine, 2-(5-methoxyisochroman-1-yl)-4,5-dihydro-1H-imidazole], the “contribution of enzyme to tasipimidine metabolism” value (from here on “contribution of enzyme”) (CYP1A2) was “minor contributors”, the “contribution of enzyme” value (CYP1A1) was “minor contributors” and the “contribution of enzyme” value (CYP2C19) was “minor contributors”. The “relief of situational anxiety and fear” value [2] was “effective in relieving situational anxiety and fear”, the Papp [3] was 15.4 ×10⁻⁶ cm/s and the CL renal [4] was 105 mL/min. The “Vmax for CYP2D6” value (CYP2D6 [5]) was 0.000043 mg/s, the blood plasma ratio ([6]; blood and plasma) was 1.13 and the fraction unbound ([6]; plasma) was 0.86. The logP [7] was 1.66, the pKa [7] was 9.24 and the “contribution of enzyme” value (CYP2D6 [8]; CYP2D6, human in vitro systems) was “major enzyme”. For the same molecule, the “intrinsic clearance (CLint)” value (CYP2D6 [8]; tasipimidine 1 μM in rhCYP2D6) was 1.75 μl/min/pmol CYP, the AUC(0-inf) ([9]; 10 ug, 10 μg single oral dose, corrected by CYP2D6 genotype based activity score, n = 6, read-out: AUCinf * AS) was 0.09 ng·h/mL and the AUC(0-inf) ([9]; 10 ug, 10 μg single oral solution dose, n = 6, healthy subjects, read-out: AUCinf) was 0.052 ng·h/mL. The AUC(0-inf) ([9]; 25 ug, 25 μg single oral dose, corrected by CYP2D6 genotype based activity score, n = 6, read-out: AUCinf * AS) was 0.254 ng·h/mL, the AUC(0-inf) ([9]; 25 ug, 25 μg single oral solution dose, n = 6, healthy subjects, read-out: AUCinf) was 0.186 ng·h/mL and the AUC(0-inf) ([9]; 50 ug, 50 μg single oral dose, corrected by CYP2D6 genotype based activity score, n = 6, read-out: AUCinf * AS) was 0.475 ng·h/mL. The AUC(0-inf) ([9]; 50 ug, 50 μg single oral solution dose, n = 6, healthy subjects, read-out: AUCinf) was 0.36 ng·h/mL, the AUC(0-inf) ([9]; 100 ug, 100 μg single oral dose, corrected by CYP2D6 genotype based activity score, n = 6, read-out: AUCinf * AS) was 1.03 ng·h/mL and the AUC(0-inf) ([9]; 100 ug, 100 μg single oral solution dose, n = 6, healthy subjects, read-out: AUCinf) was 1.03 ng·h/mL. The AUC(0-inf) ([9]; 150 ug, 150 μg single oral dose, corrected by CYP2D6 genotype based activity score, n = 6, read-out: AUCinf * AS) was 2.03 ng·h/mL, the AUC(0-inf) ([9]; 150 ug, 150 μg single oral solution dose, n = 6, healthy subjects, read-out: AUCinf) was 1.74 ng·h/mL and the “AUCinf ratio with/without paroxetine” value [10] was 3.1. The “Cmax ratio with/without paroxetine” value [10] was 1.9, the “t½ ratio with/without paroxetine” value [10] was 1.7 and the AUC(0-inf) ([10]; 10 ug, without paroxetine) was 0.106 ng·h/mL. It also gave a Cmax ([10]; 10 ug, without paroxetine) of 0.026 ng/mL, a half-life ([10]; 10 ug, without paroxetine) of 2.6 h and an AUC(0-inf) [10, 13] of 0.281 ng·h/mL. The Cmax [10, 13] was 0.047 ng/mL and the half-life [10, 13] was 4.3 h.

B1: rhCYP2D6 (Homo sapiens) (protein)
chain: MGLEALVPLAVIVAIFLLLVDLMHRRQRWAARYPPGPLPLPGLGNLLHVDFQNTPYCFDQLRRRFGDVFSLQLAWTPVVVLNGLAAVREALVTHGEDTADRPPVPITQILGFGPRSQGVFLARYGPAWREQRRFSVSTLRNLGLGKKSLEQWVTEEAACLCAAFANHSGRPFRPNGLLDKAVSNVIASLTCGRRFEYDDPRFLRLLDLAQEGLKEESGFLREVLNAVPVLLHIPALAGKVLRFQKAFLTQLDELLTEHRMTWDPAQPPRDLTEAFLAEMEKAKGNPESSFNDENLRIVVADLFSAGMVTTSTTLAWGLLLMILHPDVQRRVQQEIDDVIGQVRRPEMGDQAHMPYTTAVIHEVQRFGDIVPLGVTHMTSRDIEVQGFRIPKGTTLITNLSSVLKDEAVWEKPFRFHPEHFLDAQGHFVKPEAFLPFSAGRRACLGEPLARMELFLFFTSLLQHFSFSVPTGQPRPSHHGVFAFLVSPSPYELCAVPR
notes: purchased; host or cells: baculovirus-transfected insect cells
Work on B1 yielded a Km [11] of 0.53 µM and a kcat [11] of 3.1 pmol/min/pmol CYP.

B2: CYP2D6 (Homo sapiens) (protein)
chain: B1 chain
In the case of B2, the Km [12] is reported as 0.106 mg/L.
